“Also recorded” adds a separate entry of the source. Counter-ions that a name gives are not always drawn.
Legend:
[1] = test system: Salmonella choleraesuis (strain 10708); test: Growth of Salmonella in nutrient broth containing treated rice-hull litter, visual examination; type: cell-based; settings: for Growth of Salmonella upon litter treated with one or more treatment composition components: Example 4, 7 g litter treated, Tables 5A, 5B, 5C; for Growth of Salmonella in the Presence of an Iodophore: Example 7, 7 g litter treated 30 minutes, 0.5 g litter, 24 hrs at 37° C.; for Growth of Salmonella upon litter treated with various concentrations of treatment composition: Example 6, litter of Example 4 re-tested, 24 hours at 37° C.
Experimental: . After exposing the litter to the antimicrobial composition, the preparations were filtered and the impregnated litter filtrates were dried and placed in separate culture tubes. Sterile nutrient broth (NB) was added to each tube and appropriate tubes were inoculated with 10^3 cfu/mL of Salmonella. All tubes were incubated overnight and examined visually. Visual interpretation results were confirmed by subculturing all culture tubes to plated media. […]
After soaking, the test preparations were removed from the litter material by vacuum filtration. The wet litter was spread on paper towels and allowed to dry between about 5 hours and overnight, followed by approximately 45 minutes exposure to desiccant.
Each of the treated litter samples was tested in triplicate for the ability to reduce or inhibit growth of an inoculated Salmonella culture. Three aliquots of litter (0.5 g each) from each of the four batches of treated litter (FeCl3/citrate, chitosan, FeCl3/citrate/chitosan, and water) were measured and placed in test tubes, to which 18 mL of microbial nutrient broth (Hardy Diagnostics, Santa Maria Calif.) was added. Control test tubes containing untreated litter (e) and no litter (f) were also prepared.
The tubes containing the treated litter were inoculated with 2 mL of a 10^4 cells/mL stock Salmonella solution (final concentration of 10^3 cells/mL). The inoculated tubes were incubated at 37° C. for 24 hours, then visually examined for positive cell growth. In addition, a sample from each test tube was subcultured onto nutrient and MacConkey agar.

[2] = pH of the litter-containing nutrient broth after incubation; type: physicochemical; settings: for pH of the growth media after incubation in the presence of litter: Example 4; for pH: Example 6, tube solution after 24 hours at 37° C.
Experimental: Two extra tubes were used for positive growth (cells only) and negative growth (no cells) growth controls. 18 ml of NB was added to each tube, and […]. The tubes were incubated for 24 hours at 37° C., after which the pH was measured and the number of tubes for each treatment showing signs of bacterial growth were counted.

Molecule	Growth of Salmonella upon litter treated with one or more treatment composition components [1]	Growth of Salmonella upon litter treated with one or more treatment composition components ([1]; listed as acetic acid)	pH of the growth media after incubation in the presence of litter [2]	Growth of Salmonella in the Presence of an Iodophore [1]	Growth of Salmonella upon litter treated with various concentrations of treatment composition [1]	pH [2]
CC(=O)O [Acetic Acid]	Growth	completely ineffective	~6			
povidone-iodine complex [0.1% PIC]				ineffective		
[Cl][Fe]([Cl])[Cl] [50 mM Fe, FeCl3]	Growth				Growth	pH 6.3
Cl [HCl]	completely ineffective; also recorded: Growth		~6			
O=C(O)CC(O)(CC(=O)O)C(=O)O [50 mM citrate]	Growth				Growth	pH 6.4
povidone-iodine complex [.25% PIC]				Growth		

From patent US20040131581A1, “Novel synergistic antimicrobial compositions and methods” (SureCide Technologies, LLC, priority 2001, published 2004)
